Reference: PMC10819767, “An ADAM10 Exosite Inhibitor Is Efficacious in an In Vivo Collagen-Induced Arthritis Model” (Pharmaceuticals, 2024)
pIC50: −log10 of the molar value.

Columns and labels:
[1] = biological target: DNA polymerase β; set-up: method as in PubChem AID 485314; conditions: ref PubChem AID 485314; cited from earlier work
[2] = system: cardiac ion channel hERG; set-up: method as in PubChem AID 1511; conditions: ref PubChem AID 1511, cited from earlier work
[3] = system: TNFα; assay: RA serum marker ELISA, TNFα, CIA mice; type: in vivo, C57 BL/6 mice
Method: The sample size for therapeutic evaluation was calculated using power analysis based on experimental data from similar studies. In a two-sided test and setting the α value at 0.05 and desired power at 0.95, the sample size turned out to be 5 per group. We also expected deaths during the experiments; therefore, we used the formula Nt = N/1-q, where Nt is the number of mice initially used, N is the number required at the end of the study, and q is the proportion of attrition, which is generally 10%. Thus, at the end of the study period, we expected to have data from at least 6 mice per group, which is enough to attain statistical significance if it exists. Data were analyzed using a one-way ANOVA followed by Dunnett’s test compared with the vehicle control. At the end of the study, the mice were anesthetized and sacrificed using CO2 euthanasia. The hind paws of the mice were subjected to a histopathological examination, and the serum was analyzed for CRP, TNF-α, IL-6, and IL-10, as described in the below sections.
RA serum marker analysis. Blood was collected from the tail vein, and 100 µL was used for the assays. All assays were conducted using the manufacturer’s instructions for the respective assay kits. The following assay kits were purchased: Mouse TNF-α GENLISA™ ELISA (Krishgen BioSystems cat#KB2145, Mumbai, India), Mouse IL-10 GENLISA™ ELISA (Krishgen BioSystems cat#KB2072), Mouse hsC-Reactive Protein, hs-CRP GENLISA™ ELISA (Krishgen BioSystems cat#KLM0318), Mouse IL-6 GENLISA™ ELISA (Krishgen BioSystems cat#KB2068).

[4] = biological target: T1, ADAM17 (Homo sapiens, UniProt P78536); assay: ADAM17 enzyme assay with glycosylated substrate DM2; type: biochemical
T1 construct: purchased R & D Systems (Minneapolis, MN, USA)
Method: ADAM10 and ADAM17 assays. Both assays were performed as published previously by us. Briefly, both assays followed the same general protocol. In total, 5 μL of the 2× enzyme solution (20 nM) in an assay buffer (10 mM Hepes, 0.001% Brij-35, pH 7.5) were added to solid bottom black 384 plates (Nunc, ThermoFisher, Waltham, MA, USA, cat# 264705). Next, test compounds and pharmacological controls were added to the corresponding wells using a 384-pin tool device (V & P Scientific, San Diego, CA, USA). After 60 min of incubation at RT, the reactions were started via the addition of 5 μL of the 2× solutions of glycosylated substrate DM2 (20 μM). The reactions were incubated at RT for 2 h, after which the fluorescence was measured using a Biotek H1 multimode microplate imager (λexcitation = 360 nm, λemission = 460 nm). IC50 values were calculated by fitting normalized data to the sigmoidal log vs. the response equation utilizing a non-linear regression analysis from GraphPad Prizm 9.

[5] = system: muscarinic (CHRM1); set-up: method as in PMID 34817776; conditions: cited from earlier work
[6] = system: collagen-induced arthritis (CIA) model; assay: CIA mouse model: clinical arthritis score and paw swelling; type: in vivo, C57 BL/6 mice; conditions: for disease score: scale 0–4
Method: In vivo efficacy in the CIA mouse model. All animal studies were conducted in accordance with NSU IACUC guidelines. Study protocol #2021.04.DM5 was approved by NSU IACUC before the commencement of the studies. CID 3117694 and indomethacin were ground with a small amount of the dispersing agent (0.5% HPMC (3 cP)–0.5% Tween 80) using a mortar and a pestle and mixed repeatedly to form a smooth paste. The paste was moved to a graduated cylinder and filled up to the required volume with the dispersing agent to form a suspension, as described elsewhere. The test compound (10, 30, and 50 mg/kg) and indomethacin (2.5 mg/kg) were administered with a mouse gavage needle (gauge no: 18, BD, catalog number: 653902) through the oral route as a suspension with a 5 mL/kg dose volume (from day 0 to day 28). In this study, 6–8-week-old C57 BL/6 mice from Charles River (male and female) were used. Animals were randomly assigned to one of the following six groups: (1) normal (non-RA control), (2) RA control untreated, (3) RA control treated with 2.5 mg/kg/day indomethacin, and 3 test groups (CID 3117694 (10 mg/kg/day, 30 mg/kg/day, and 50 mg/kg/day)) to provide an estimate for the lead compound’s efficacy range. Each group had three males and three females assigned to the control for gender-based differences. Arthritis was induced in the right paws of the mice under anaesthesia. The left paw of the mice was used as a control. A total of 10 µL collagen from bovine (type II collagen) nasal septum emulsion (2 mg/mL) was injected into the right knee joint with a glass Hamilton syringe and 25 G needles for intraarticular (i.a.) injection, followed by a total of 100 µL Complete Freund’s adjuvant (CFA) emulsion was injected at the back of mice using a syringe with 25 G needles subcutaneously (s.c.). On day 14 after the first injection, the mice were injected, i.e., with 10 µL of collagen from the bovine nasal septum ([…]) and s.c. with a 100 µL CFA emulsion for a boost injection. Arthritis progression was monitored using a clinical arthritis scoring system (0–4), and paw swelling was measured with the help of a plethysmograph on days 0, 14, 21, and 28 after the induction of arthritis. […] After the administration of a primary dose of collagen from the bovine nasal septum, CFA scoring was assessed. Measurements were taken on days 0, 14, 21, and 28 after the induction of arthritis in induced paws (right paw) and non-arthritis paws (left paw). CID 3117694 (10 mg/kg/day, 30 mg/kg/day, and 50 mg/kg/day) and pharmacological control (indomethacin 2.5 mg/kg/day) treatment were given every day for 28 days beginning from day 1 via oral gavage in hydroxy-propyl-methyl cellulose (HPMC) suspension.

[7] = Body weight and clinical signs of distress during CIA study; type: in vivo; conditions: 10, 30, 50 mg/kg oral for 28 days
Text: Mice were weighed and observed every day, and notes were made on the signs of distress.

T1 sequence (P78536 215-824, species assumed): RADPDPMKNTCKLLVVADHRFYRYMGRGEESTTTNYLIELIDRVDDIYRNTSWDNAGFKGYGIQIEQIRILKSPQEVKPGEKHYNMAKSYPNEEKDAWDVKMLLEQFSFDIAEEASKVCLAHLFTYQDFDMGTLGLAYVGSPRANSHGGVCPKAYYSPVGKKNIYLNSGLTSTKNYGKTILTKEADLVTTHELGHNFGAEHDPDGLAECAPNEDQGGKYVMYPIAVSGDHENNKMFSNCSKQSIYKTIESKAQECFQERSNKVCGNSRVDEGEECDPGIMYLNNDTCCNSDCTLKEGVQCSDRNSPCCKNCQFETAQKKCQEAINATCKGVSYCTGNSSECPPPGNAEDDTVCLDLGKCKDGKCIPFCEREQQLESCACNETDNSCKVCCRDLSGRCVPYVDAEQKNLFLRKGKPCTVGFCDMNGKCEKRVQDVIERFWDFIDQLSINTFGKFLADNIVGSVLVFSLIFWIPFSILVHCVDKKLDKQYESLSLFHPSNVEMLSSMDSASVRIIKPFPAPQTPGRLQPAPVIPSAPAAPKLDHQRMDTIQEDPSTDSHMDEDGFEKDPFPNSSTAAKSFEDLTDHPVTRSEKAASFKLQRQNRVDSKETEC

## COc1cccc(C(=O)NNC(=O)C(=O)Nc2ccc(C)c(Cl)c2)c1 [CID 3117694]
[1]
  pIC50: 4.10
[2]; no EC50 value reported
  effect on hERG with pro-arrhythmic agents (in words): cardioprotective
[2]
  hERG inhibition (in words): not an hERG inhibitor
[3]; CID 3117694 50 mg/kg/day, indomethacin 2.5 mg/kg
  TNFα blood level vs healthy control: decreased the markers to the level of the healthy control
[3]; all tested doses (10, 30, 50 mg/kg), vs vehicle control
  concentration of TNFα in the blood of arthritic mice: lowers
[4]
  pIC50: < 4.00
[5]
  activity against CHRM1: inactive
[6]; 50 mg/kg/day
  paw swelling vs normal control (in words): decreased the swelling to the level of the normal control
[6]; day 21, 10 mg/kg oral
  disease score: 4
[6]; day 21, 30 mg/kg oral
  disease score: three
[6]; day 21, 50 mg/kg oral
  disease score: 2
[6]; day 28, 10 mg/kg oral
  disease score: 2
[6]; day 28, 30 mg/kg oral
  disease score: 2
[6]; day 28, 50 mg/kg oral
  disease score: 1
[7]
  body weight vs vehicle control: no significant differences in body weight
  clinical signs of distress: no clinical signs of distress
